Laboratory results from BindingDB's records for doi:10.1016/s0960-894x(00)00294-8 (Universität Göttingen, 2000).

Assay: Compound was evaluated for inhibitory effect against protein phosphatase I (PP-I)

CCCCCCCCCCCCCCCC(=O)OC[C@@H](O)[C@H]1OC(=O)[C@]2(O)CCC(O)O[C@]12OC (stereo partly drawn) [Hexadecanoic acid (R)-2-((4aS,7R,7aR)-2,4a-dihydroxy-7a-methoxy-5-oxo-hexahydro-furo[3,4-b]pyran-7-yl)-2-hydroxy-ethyl ester]
IC50: 11 µM

CCCCCCCCCCCCCCCC(=O)OC[C@@H](O)[C@H]1OC(=O)[C@]2(CCC(OC(C)C)O2)C1=O (stereo partly drawn) [Hexadecanoic acid (R)-2-hydroxy-2-((5S,8R)-2-isopropoxy-6,9-dioxo-1,7-dioxa-spiro[4.4]non-8-yl)-ethyl ester]
IC50: 3 µM
